Source: ChEMBL document CHEMBL1914290, “3,4-Disubstituted oxazolidin-2-ones as constrained ceramide analogs with anticancer activities” (Bioorg Med Chem, 2011)
The source made the active and inactive calls. No cut-off for these calls is given here.

Columns and labels:
HL-60 [1] = experiment: Antileukemic activity against human HL60 cells at 20 uM after 16 hrs by MTT assay; type: functional, cell-based
HL-60 [2] = experiment: Induction of apoptosis in human HL60 cells assessed as DNA fragmentation at 20 uM after 15 hrs; type: functional, cell-based

SMILES	Activity (HL-60 [1])	Activity (HL-60 [2])
CCCCCCCCCCCCC/C=C/[C@@H](O)[C@@H]1COC(=O)N1C(=O)c1ccccc1OC	Active	–
CCCCCCCCCCCCC/C=C/[C@@H](O)[C@@H]1COC(=O)N1C(=O)c1cccc2ccccc12	Active	–
CCCCCCCCCCCCC/C=C/[C@@H](O)[C@@H]1COC(=O)N1C(=O)C/C=C/c1ccccc1	inactive	–
CCCCCCCCCCCCC/C=C/[C@@H](O)[C@@H]1COC(=O)N1C(=O)C(C)C	Active	Active
CCCCCCCCCCCCC/C=C/[C@@H](O)[C@@H]1COC(=O)N1C(=O)Cc1ccccc1	inactive	–
CCCCCCCCCCCCC/C=C/[C@@H](O)[C@@H]1COC(=O)N1C(=O)c1ccc([N+](=O)[O-])cc1	Active	Active
CCCCCCCCCC/C=C/[C@@H](O)[C@@H]1COC(=O)N1C(=O)C1CCCC1	Active	–
CCCCCCCCCCCCC/C=C/[C@@H](O)[C@@H]1COC(=O)N1C(=O)C1CCCC1	Active	Active
CCCCCCCCCCCCC/C=C/[C@@H](O)[C@@H]1COC(=O)N1C(=O)c1ccccc1	Active	Active
CCCCCCCCCCCCC/C=C/[C@@H](O)[C@@H]1COC(=O)N1C(=O)CCCCCCCCCCCCCCC	inactive	Active
O=C1OC[C@@H]([C@H](O)/C=C/C2CCCCC2)N1C(=O)C1CCCC1	inactive	–
CCCCCCCC/C=C/[C@@H](O)[C@@H]1COC(=O)N1C(=O)C1CCCC1	inactive	–
CCCCCCCCCCCCC/C=C/[C@@H](O)[C@@H]1COC(=O)N1C(=O)c1ccco1	Active	–
CCCCCCCCCCCCC/C=C/[C@@H](O)[C@@H]1COC(=O)N1C(=O)CC	Active	Active
CCCCCC/C=C/[C@@H](O)[C@@H]1COC(=O)N1C(=O)C1CCCC1	inactive	–
CCCCCCCCCCCCC/C=C/[C@@H](O)[C@@H]1COC(=O)N1C(C)=O	Active	Active
CCCCCCCCCCCCC/C=C/[C@@H](O)[C@@H]1COC(=O)N1C(=O)C(C)(C)C	Active	–
O=C1OC[C@@H]([C@H](O)/C=C/Cc2ccccc2)N1C(=O)C1CCCC1	inactive	–
O=C1OC[C@@H]([C@H](O)/C=C/C2CCCC2)N1C(=O)C1CCCC1	inactive	–
CCCC/C=C/[C@@H](O)[C@@H]1COC(=O)N1C(=O)C1CCCC1	inactive	–
